Measured values published in US11534457B2, “Use of dextran sulfate” (priority 2017, dated 2022).

Test system: βIII-tubulin expression in human motor neurons
Test: βIII-tubulin immunostaining (differentiation-related protein expression)
Format: cell-based
Conditions: 48 h
Method: Neurons were cultured as 40,000 cells per well and Schwann cells 3,000 cells per. Cells were treated after 24 hours. The number of cells per well depended on the growth phenotype, proliferative capacity, etc.
NeuroBlast was pre-warmed to 37° C. Cells were thawed in a 37° C. water bath for no longer than 2 min. 1 ml of media was gently added drop-wise. Cells were resuspended and transferred to a 15 ml tube containing 9 ml of medium. Cells were centrifuged at 200 relative centrifugal force (RCF) for 5 min. Pellet was resuspended in 5 ml of medium and cells were counted with the Cellometer. 40,000 cells per well were seeded in previously coated 96-well plates. Cells were incubated at 37° C. with 5% CO2. Cells were allowed to settle for 24 hours before drug treatment. […]
LMW-DS was prepared in the culture media of choice for each cell line and added to the respective wells in the doses 0.01 and 0.1 mg/ml. For cell survival assays cells were analyzed after 24 and 48 hours in eight identical wells/dose/time point. Differentiation and protein expression assay was analyzed after 48 hours, also in octuplicates. […]
The Acumen cytometer allows the direct cytometric analysis of attached cells without prior detachment. […] The protein content of the cells can also be directly measured and expressed as either ‘total protein content’ or ‘mean protein content’.

low molecular weight dextran sulfate [LMW-DS]
βIII-tubulin expression (0.01 and 0.1 mg/ml): significantly increased
size of the majority of βIII-tubulin positive cells vs control cultures: smaller
